# Measured values taken from ChEMBL document CHEMBL1133979, “1,2,4-triazolo[3,4-a]pyridine as a novel, constrained template for fibrinogen receptor (GPIIb/IIIa) antagonists” (Bioorg Med Chem Lett, 2001).
# Experiments:
# [1] = target: T1, Integrin alpha-IIb/beta-3 (Homo sapiens, UniProt P05106+P08514); assay: Inhibition of biotinylated fibrinogen binding to immobilized integrin GPIIb/IIIa; assay type: protein-complex assay
# [2] = system: Canis familiaris; assay: Ex vivo oral duration for maintaining at least 50% inhibition of platelet aggregation induced by adenosine diphosphate after administration at a dose of at 1 mg/kg; assay type: functional, Canis lupus familiaris
# [3] = Oral bioavailability in dog; assay type: ADME, organism-based, Canis lupus familiaris; details: in vivo
# [4] = target: T1, Integrin alpha-IIb/beta-3; assay: Inhibition of thrombin-induced human gel-filtered platelet aggregation at 50 uM; NA= Inactive; assay type: functional
# [5] = Half life in dog; assay type: ADME, organism-based, Canis lupus familiaris; details: in vivo
# T1 sequence (P05106 27-788 limits assumed): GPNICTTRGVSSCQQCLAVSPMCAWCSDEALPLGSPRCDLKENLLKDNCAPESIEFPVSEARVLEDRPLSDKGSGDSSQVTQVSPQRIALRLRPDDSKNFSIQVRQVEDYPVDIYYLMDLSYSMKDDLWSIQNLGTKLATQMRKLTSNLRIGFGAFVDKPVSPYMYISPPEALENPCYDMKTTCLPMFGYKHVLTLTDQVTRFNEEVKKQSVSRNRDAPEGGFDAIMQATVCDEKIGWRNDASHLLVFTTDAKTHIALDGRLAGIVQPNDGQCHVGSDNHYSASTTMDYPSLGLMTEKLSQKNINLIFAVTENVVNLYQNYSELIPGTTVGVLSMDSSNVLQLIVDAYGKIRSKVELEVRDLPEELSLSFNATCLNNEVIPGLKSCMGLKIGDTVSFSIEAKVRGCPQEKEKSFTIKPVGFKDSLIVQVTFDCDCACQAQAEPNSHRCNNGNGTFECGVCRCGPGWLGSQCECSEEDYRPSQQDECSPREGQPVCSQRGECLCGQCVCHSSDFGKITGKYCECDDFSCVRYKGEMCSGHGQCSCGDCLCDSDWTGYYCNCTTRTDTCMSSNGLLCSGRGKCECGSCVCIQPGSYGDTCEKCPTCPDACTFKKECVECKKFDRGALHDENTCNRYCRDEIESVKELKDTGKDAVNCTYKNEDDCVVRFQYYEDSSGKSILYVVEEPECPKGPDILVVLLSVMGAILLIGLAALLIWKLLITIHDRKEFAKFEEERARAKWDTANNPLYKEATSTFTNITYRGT
# T1 sequence (P08514 32-887 limits assumed): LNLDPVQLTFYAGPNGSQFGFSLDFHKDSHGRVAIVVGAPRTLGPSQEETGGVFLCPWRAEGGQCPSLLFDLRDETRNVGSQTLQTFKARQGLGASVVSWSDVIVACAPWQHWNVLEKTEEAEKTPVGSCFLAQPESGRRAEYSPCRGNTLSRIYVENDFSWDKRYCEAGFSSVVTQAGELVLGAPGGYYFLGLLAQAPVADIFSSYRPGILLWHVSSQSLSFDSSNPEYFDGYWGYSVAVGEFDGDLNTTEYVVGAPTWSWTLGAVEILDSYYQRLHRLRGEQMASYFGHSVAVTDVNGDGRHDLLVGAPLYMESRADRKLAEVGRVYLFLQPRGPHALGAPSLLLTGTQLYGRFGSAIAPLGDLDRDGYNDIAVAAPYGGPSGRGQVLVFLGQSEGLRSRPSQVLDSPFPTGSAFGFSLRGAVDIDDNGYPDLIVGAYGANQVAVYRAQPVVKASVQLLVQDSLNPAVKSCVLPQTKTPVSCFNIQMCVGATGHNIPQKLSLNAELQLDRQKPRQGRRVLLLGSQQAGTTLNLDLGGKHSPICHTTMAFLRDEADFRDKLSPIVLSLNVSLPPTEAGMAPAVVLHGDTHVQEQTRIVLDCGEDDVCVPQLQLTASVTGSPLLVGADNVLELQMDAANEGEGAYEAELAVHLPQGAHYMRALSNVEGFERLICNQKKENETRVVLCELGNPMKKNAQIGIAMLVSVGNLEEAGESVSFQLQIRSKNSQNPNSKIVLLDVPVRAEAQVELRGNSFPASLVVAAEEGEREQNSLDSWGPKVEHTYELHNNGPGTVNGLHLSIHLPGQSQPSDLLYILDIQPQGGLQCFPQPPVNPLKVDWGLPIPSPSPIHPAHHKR
# T1 sequence (P08514 891-1039 limits assumed): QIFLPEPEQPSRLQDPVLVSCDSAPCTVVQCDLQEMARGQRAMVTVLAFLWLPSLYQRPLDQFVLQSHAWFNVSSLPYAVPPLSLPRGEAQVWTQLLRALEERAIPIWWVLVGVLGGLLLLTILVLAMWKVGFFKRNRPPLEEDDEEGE
SMILES,IC50 [1],Oral duration [2],further results
O=C(O)C[C@H](NC(=O)C1CCCn2c(CCC3CCNCC3)nnc21)c1cccnc1 (stereo not given in full),0.53 nM,3 h,–
O=C(O)C[C@H](NC(=O)c1cccn2c(CCC3CCNCC3)nnc12)c1cccnc1,4.2 nM,–,–
O=C(O)C[C@H](NC(=O)C1CCCn2c(/C=C/C3CCNCC3)nnc21)c1cccnc1 (stereo not given in full),0.21 nM,>6 h,bioavailability [3]: 31%
O=C(N[C@@H](CNC(=O)C1CCCn2c(/C=C/C3CCNCC3)nnc21)C(=O)O)OCc1ccccc1 (stereo not given in full),0.32 nM,>6 h,bioavailability [3]: 23%
O=C(NC[C@H](NS(=O)(=O)Cc1ccccc1)C(=O)O)C1CCCn2c(/C=C/C3CCNCC3)nnc21 (stereo not given in full),–,<0.5 h,–
O=C(N[C@@H](CNC(=O)[C@@H]1CCCN(C(=O)CCC2CCNCC2)C1)C(=O)O)OCc1ccccc1,0.17 nM,3 h,–
O=C(N[C@@H](CNC(=O)C1CCCn2c(CCC3CCNCC3)nnc21)C(=O)O)OCc1ccccc1 (stereo not given in full),–,4 h,–
O=C(O)C[C@H](NC(=O)C1CCCn2c(/C=C/C3CCNCC3)nnc21)c1cnc2ccccc2c1 (stereo not given in full),–,4.5 h,–
CC1(C(=O)NC[C@H](NC(=O)OCc2ccccc2)C(=O)O)CCCn2c(CCC3CCNCC3)nnc21 (stereo not given in full),–,<0.5 h,–
O=C(O)C[C@H](NC(=O)c1cccn2c(/C=C/C3CCNCC3)nnc12)c1cccnc1,–,–,IC50 [4]: Not Active
O=C(O)C[C@H](NC(=O)[C@@H]1CCCN(C(=O)CCC2CCNCC2)C1)c1cccnc1 [ELAROFIBAN],0.36 nM,5 h,half-life [5]: 5 h; bioavailability ([3]; read-out: Bioavailabiility): 16%
